The source of these data is patent US9580391B2, “Saturated acyl guanidine for inhibition of F1F0-ATPase” (Lycera Corporation, priority 2012, dated 2017).

The target in one assay is T1, F1F0-ATPase (Bos taurus, UniProt P13621).
T1 construct: from tissue
As to the kind of experiment: Inhibition of F1F0-ATPase activity in synthesizing ATP. Particulars: inhibition of ATP synthesis; read-out: ATP Syn IC50. The assay is classed as biochemical. On the procedure:
(§1) Compounds described in above Examples were tested for activity against F1F0-ATPase by measuring the ability of the compounds to inhibit ATP synthesis. In addition, the compounds were assessed for cytotoxicity in Ramos cells. Inhibition of F1F0-ATPase activity in synthesizing ATP and cytotoxicity in Ramos cells were measured according to the procedures described in K. M. Johnson et al. Chemistry & Biology 2005, 12, 485-496.

The test system of a further assay is Ramos cells. The assay can be described thus: Cytotoxicity in Ramos cells. The assay is classed as cell-based. To be noted: Homo sapiens, read-out: Ramos Cell EC50. On the procedure: as §1

Molecules are shown by their SMILES.

What is called IC50 is the concentration at which inhibition is half-maximal. What is called EC50 is the midpoint of the concentration-response curve. `CC(C)(C)CC(=O)/N=C(\Nc1cc(-c2ccc(F)cc2)[nH]n1)NC(C)(C)C` [Compound 1, (Z)—N-((tert-Butylamino)((5-(4-fluorophenyl)-1H-pyrazol-3-yl)amino)methylene)-3,3-dimethylbutanamide]: the IC50 at F1F0-ATPase is less than 5 µM. Moreover, in the assay with Ramos cells, the EC50 was in the range of 5 to 16 µM.
The like results for `O=C(Cc1ccc(Cl)cc1)/N=C(/Nc1cc(F)cc(Cl)c1)Nc1ccc2cn[nH]c2c1` [Compound 3, N-(((1H-Indazol-6-yl)amino)((3-chloro-5-fluorophenyl)amino)methylene)-2-(4-chlorophenyl)acetamide] were, in that order, less than 5 µM and 5 to 16 µM.
Turning to `O=C(/N=C(/Nc1cccc(Cl)c1)Nc1ccc2cn[nH]c2c1)C1CCCCC1` [Compound 2, (E)-N-(((1H-Indazol-6-yl)amino)((3-chlorophenyl)amino)methylene)cyclohexanecarboxamide], at F1F0-ATPase, the IC50 was 5 to 16 µM. The EC50 in the assay with Ramos cells fell in the range of 5 to 16 µM.
